According to PubChem BioAssay AID504629 (National Center for Advancing Translational Sciences (NCATS), 2011):

Tested on: Caco-2 monolayer permeability, A-to-B, LC-MS/MS
Test: Inhibitors of HPGD: Caco-2 Cell Permeability Profiling
Details: hits give high values
Text: Human 15-Hydroxyprostaglandin dehydrogenase (HPGD) catalyzes the inactivation of prostaglandin E2, and plays a major role in cancer biology by antagonizing the oncogenic potential of cyclooxygenase type 2 (COX2). Assays are available, based on absorbance/fluorescence increase of NADH with the substrate 15-OH prostaglandin E2. This bioassays provides profiling data on Caco-2 cell permeability of leads compounds developed for the HPGD project. This in vitro model is often predictive of in vivo absorption of the compound across the intestinal lining by using a Caco2-cell line and measuring the compound's rate of transport […]. NIH Chemical Genomics Center [NCGC] Structural Genomics Consortium [SGC]
1. Buffer Preparation: Prepare 1M HEPES: add 23.83g HEPES to 100ml of 0.85% NaCl Prepare HBSS+ buffer: add 12.8ml of 1M HEPES in 0.85% NaCl to 500ml HBSS buffer. 2. Take out the compounds from -80 degrees C, ultrasonicate or pre-warm for a few minutes to thaw the compounds. 3. […] The T0, LY and T90, LY plates are read by FlexStation 3 at excitation of 485 nm and emission of 535 nm to determine LY permeability. […]

| permeability Papp | Compound |
| --- | --- |
| 21 10^-6 cm/s | Cc1cc(-c2nnc3n2CCCCC3)c(C)n1-c1ccccc1 |
| 15 10^-6 cm/s | Cc1cccc(-n2cnc3cc(C(=O)N4CCCCC4)ccc32)c1 |
